Source: US20190024193A1, “Sesquiterpene Biosensors and Uses Thereof” (priority 2017, published 2019)

The compounds below were run on PB2 bisabolol biosensor (assay: PB2 bisabolol biosensor reporter fluorescence (Gemini reporter, GFP portion) in E. coli EPI300 host cells). Settings: E. coli EPI300 with PB2, high (0.01% arabinose) or low copy number.
Format: cell-based, E. coli EPI300 (PB2 insert originating from Pseudomonas)
Method: (§1) A metagenomic library made from environmental samples obtained from hots springs, permafrost, sea water, soil, and hydrocarbon resource samples (from soil) was made using the Meta-G-Nome™ DNA Isolation Kit and CopyControl™ Fosmid Library Production Kit obtained from Epicentre. 300-400 fosmid clones from this library were obtained and mixed with a Tn5 transposase and sufficient biosensor construct (FIG. 1) was added to give about 10 biosensor inserts per fosmid. The transposase randomly integrated the biosensor construct into the fosmid vector, and the modified fosmid library with biosensor constructs was transformed into E. coli strain EPI300™ (commercially sold by Epicentre). The E. coli EPI300™ transformed with the modified fosmid library was plated on LB media with 20 μg/ml spectinomycin and 0.01% arabinose.
(§2) These functional biosensors were interrogated with (−)-α-bisabolol and clones that produced reporter fluorescence above control in response to the (−)-α-bisabolol were selected. Two bisabolol positive clones were selected and designated PB2 and PB3. PB2 was obtained from a fosmid with an insert originating from Pseudomonas, and PB3 was obtained from a fosmid with an insert originating from Bradyrhizobium.
(§3) As described above, the copy number of the fosmids with the PB2 biosensor and the PB3 biosensor can by increased in E. coli EPI300™ host cells that are treated with arabinose to induce an increase in copy number of the fosmid. E. coli EPI300™ with the PB2 or PB3 biosensors were treated (high copy number) or not treated (low copy number) with arabinose and then screened for reporter activity (Gemini reporter fluorescence from the GFP portion).
(§4) E. coli EPI300™ with fosmids containing PB2 or PB3 were grown without arabinose (low copy number) and in the presence of spectinomycin (200 μg/ml for PB2 and 500 μg/ml for PB3). The host cells were treated with different concentrations of (−)-α-bisabolol (0.0, 0.1, 0.25, 0.4, 0.5, 1.0 and 1.5 mM). FIGS. 6 and 7 show the fluorescence results for PB2 and PB3. Both biosensors show a dose response between 0.05 and 1.0 mM (−)-α-bisabolol.
(§5) E. coli EPI300™ with fosmids containing PB2 or PB3 were grown with 0.01% arabinose for high copy number of the biosensor, or grown in the absence of arabinose for low copy number of the biosensor, and then treated with a sesquiterpene: (−)-α-bisabolol, squalene, nerolidol, cintonellal, carvone, farnesene, or cineole. PB2 was also tested against linalool and PB3 was tested against ursolic acid.

| Compound | response of PB2 biosensor to stimulation with the compound |
| --- | --- |
| CC(C)=CCC/C(C)=C/CC/C(C)=C/CC/C=C(\C)CC/C=C(\C)CCC=C(C)C [squalene] | did not respond above background |
| CC(C)=CCC[C@](C)(O)[C@@H]1CC=C(C)CC1 [(−)-α-bisabolol] | high specificity for induction |
| CC12CCC(CC1)C(C)(C)O2 [cineole] | did not respond above background |
| CC(C)=CCC[C@@H](C)CC=O [cintonellal] | did not respond above background |
| farnesene | did not respond above background |
| C=CC(C)(O)CCC=C(C)CCC=C(C)C (stereo not drawn) [nerolidol] | did not respond above background |
| C=C(C)C1CC=C(C)C(=O)C1 (stereo not drawn) [carvone] | did not respond above background |
| C=CC(C)(O)CCC=C(C)C (stereo not drawn) [linalool] | did not respond above background |

The compounds below were run on PB3 bisabolol biosensor (assay: PB3 bisabolol biosensor reporter fluorescence (Gemini reporter, GFP portion) in E. coli EPI300 host cells). Settings: E. coli EPI300 with PB3, 1 mM nerolidol.
Format: cell-based, E. coli EPI300 (PB3 insert originating from Bradyrhizobium)
Method: as §1, §2, §3, §4, §5

| Compound | response of PB3 biosensor relative to (−)-α-bisabolol |
| --- | --- |
| C=CC(C)(O)CCC=C(C)CCC=C(C)C (stereo not drawn) [nerolidol] | comparable activity to PB3 treated with 0.2 mM (−)-α-bisabolol |

Same assay, conditions: E. coli EPI300 with PB3, high (0.01% arabinose) or low copy number

| Compound | response of PB3 biosensor to stimulation with the compound |
| --- | --- |
| CC(C)=CCC/C(C)=C/CC/C(C)=C/CC/C=C(\C)CC/C=C(\C)CCC=C(C)C [squalene] | did not respond above background |
| C[C@H]1[C@H](C)CC[C@]2(C(=O)O)CC[C@]3(C)C(=CC[C@@H]4[C@@]5(C)CC[C@H](O)C(C)(C)[C@@H]5CC[C@]43C)[C@H]12 [ursolic acid] | did not respond above background |
| CC12CCC(CC1)C(C)(C)O2 [cineole] | did not respond above background |
| CC(C)=CCC[C@@H](C)CC=O [cintonellal] | did not respond above background |
| farnesene | did not respond above background |
| C=C(C)C1CC=C(C)C(=O)C1 (stereo not drawn) [carvone] | did not respond above background |
